# Measurements taken from ChEMBL document CHEMBL1201862, “PubChem BioAssay data set” (2004).
#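 Method: 48-hour compound exposure of cells in 96-well plates, five concentrations, linear interpolation of endpoints. GI50 = concentration required for 50% inhibition of growth.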 The source made the active and inactive calls. Cut-off read from the data, not from the text of the source: active = GI50 up to about 1.1 µM and inactive = higher.
# Tests used:
# Experiment in all cases: NCI tumour cell line growth inhibition, 48 h
# COLO 205 = test system: COLO 205
# HCC 2998 = test system: HCC 2998
# M14 = test system: M14
# A549 = test system: A549
# CCRF-CEM = test system: CCRF-CEM
# PC-3 = test system: PC-3
# CAKI-1 = test system: CAKI-1
# SK-OV-3 = test system: SK-OV-3
# HOP-92 = test system: HOP-92
# NCI-H23 = test system: NCI-H23
# DU-145 = test system: DU-145
# HCT-15 = test system: HCT-15
# RXF 393 = test system: RXF 393
# TK-10 = test system: TK-10
# HL-60 = test system: HL-60
# SNB-19 = test system: SNB-19
# SN12C = test system: SN12C
# UACC-257 = test system: UACC-257
# 786-0 = test system: 786-0
# HOP-62 = test system: HOP-62
# SR = test system: SR
# UO-31 = test system: UO-31
# OVCAR-4 = test system: OVCAR-4
# A498 = test system: A498
# SW-620 = test system: SW-620
# NCI/ADR-RES = test system: NCI/ADR-RES
# T47D = test system: T47D
# IGROV-1 = test system: IGROV-1
# OVCAR-3 = test system: OVCAR-3
# RPMI-8226 = test system: RPMI-8226
# KM12 = test system: KM12
# Malme-3M = test system: Malme-3M
# K562 = test system: K562
# MOLT-4 = test system: MOLT-4
# MDA-MB-231 = test system: MDA-MB-231
# LOX IMVI = test system: LOX IMVI
# EKVX = test system: EKVX
# BT-549 = test system: BT-549
# MDA-N = test system: MDA-N
# NCI-H522 = test system: NCI-H522
# SNB-75 = test system: SNB-75
# SF-295 = test system: SF-295
# OVCAR-5 = test system: OVCAR-5
# HCT-116 = test system: HCT-116
# ACHN = test system: ACHN
# HT-29 = test system: HT-29
# Hs-578T = test system: Hs-578T
# SF-268 = test system: SF-268
# U-251 = test system: U-251
# MDA-MB-435 = test system: MDA-MB-435
# SK-MEL-5 = test system: SK-MEL-5
# SK-MEL-2 = test system: SK-MEL-2
# SF-539 = test system: SF-539
# NCI-H226 = test system: NCI-H226
# UACC-62 = test system: UACC-62
# MCF7 = test system: MCF7
# OVCAR-8 = test system: OVCAR-8
# SK-MEL-28 = test system: SK-MEL-28
# NCI-H460 = test system: NCI-H460
compound,measurement,setting,value
CCCN(C(=O)c1ccccc1)C(C#N)c1ccc(C(C#N)N(CCC)C(=O)c2ccccc2)cc1 (stereo not drawn),GI50,COLO 205,> 100 µM (inactive)
same,GI50,HCC 2998,> 100 µM (inactive)
same,GI50,M14,> 100 µM (inactive)
same,GI50,A549,56.6 µM (inactive)
same,GI50,CCRF-CEM,> 100 µM (inactive)
same,GI50,PC-3,68.9 µM (inactive)
same,GI50,CAKI-1,> 100 µM (inactive)
same,GI50,SK-OV-3,22 µM (inactive)
same,GI50,HOP-92,16.3 µM (inactive)
same,GI50,NCI-H23,> 100 µM (inactive)
same,GI50,DU-145,77.6 µM (inactive)
same,GI50,HCT-15,> 100 µM
same,GI50,RXF 393,35.6 µM (inactive)
same,GI50,TK-10,> 100 µM (inactive)
same,GI50,HL-60,> 100 µM (inactive)
same,GI50,SNB-19,26.1 µM (inactive)
same,GI50,SN12C,> 100 µM (inactive)
same,GI50,UACC-257,> 100 µM (inactive)
same,GI50,786-0,38.1 µM (inactive)
same,GI50,HOP-62,27.1 µM (inactive)
same,GI50,SR,> 100 µM (inactive)
same,GI50,UO-31,> 100 µM (inactive)
same,GI50,OVCAR-4,14.5 µM (inactive)
same,GI50,A498,37.1 µM (inactive)
same,GI50,SW-620,> 100 µM (inactive)
same,GI50,NCI/ADR-RES,38.5 µM (inactive)
same,GI50,T47D,11.2 µM (inactive)
same,GI50,IGROV-1,32.4 µM (inactive)
same,GI50,OVCAR-3,> 100 µM (inactive)
same,GI50,RPMI-8226,> 100 µM (inactive)
same,GI50,KM12,> 100 µM (inactive)
same,GI50,Malme-3M,> 100 µM (inactive)
same,GI50,K562,> 100 µM (inactive)
same,GI50,MOLT-4,> 100 µM (inactive)
same,GI50,MDA-MB-231,66.1 µM (inactive)
same,GI50,LOX IMVI,> 100 µM (inactive)
same,GI50,EKVX,58.3 µM (inactive)
same,GI50,BT-549,48.4 µM (inactive)
same,GI50,MDA-N,> 100 µM (inactive)
same,GI50,NCI-H522,> 100 µM (inactive)
same,GI50,SNB-75,18.4 µM (inactive)
same,GI50,SF-295,42.4 µM (inactive)
same,GI50,OVCAR-5,93.3 µM (inactive)
same,GI50,HCT-116,> 100 µM (inactive)
same,GI50,ACHN,84.1 µM (inactive)
same,GI50,HT-29,21.6 µM (inactive)
same,GI50,Hs-578T,24.9 µM (inactive)
same,GI50,SF-268,85.9 µM (inactive)
same,GI50,U-251,40 µM (inactive)
same,GI50,MDA-MB-435,> 100 µM (inactive)
same,GI50,SK-MEL-5,92.5 µM (inactive)
same,GI50,SK-MEL-2,> 100 µM (inactive)
same,GI50,SF-539,28.5 µM (inactive)
same,GI50,NCI-H226,20 µM (inactive)
same,GI50,UACC-62,45 µM (inactive)
same,GI50,MCF7,> 100 µM (inactive)
same,GI50,OVCAR-8,55.3 µM (inactive)
NCCNCCCNC(=O)c1cc(-c2ccccc2)nc2ccccc12,GI50,COLO 205,16.2 µM (inactive)
same,GI50,HCC 2998,19.6 µM (inactive)
same,GI50,M14,15.1 µM (inactive)
same,GI50,A549,41.6 µM (inactive)
same,GI50,CCRF-CEM,21 µM (inactive)
same,GI50,PC-3,51.3 µM (inactive)
same,GI50,CAKI-1,52.4 µM (inactive)
same,GI50,SK-OV-3,65 µM (inactive)
same,GI50,HOP-92,13.7 µM (inactive)
same,GI50,NCI-H23,30.6 µM (inactive)
same,GI50,DU-145,> 100 µM (inactive)
same,GI50,HCT-15,> 100 µM
same,GI50,SK-MEL-28,16.7 µM (inactive)
same,GI50,RXF 393,38.8 µM (inactive)
same,GI50,TK-10,62.7 µM (inactive)
same,GI50,HL-60,30.6 µM (inactive)
same,GI50,SNB-19,50 µM (inactive)
same,GI50,SN12C,40.8 µM (inactive)
same,GI50,UACC-257,24.1 µM (inactive)
same,GI50,786-0,22.3 µM (inactive)
same,GI50,HOP-62,27.2 µM (inactive)
same,GI50,SR,28.3 µM (inactive)
same,GI50,UO-31,46 µM (inactive)
same,GI50,A498,41.7 µM (inactive)
same,GI50,SW-620,34 µM (inactive)
same,GI50,NCI/ADR-RES,> 100 µM (inactive)
same,GI50,T47D,38.5 µM (inactive)
same,GI50,IGROV-1,> 100 µM (inactive)
same,GI50,OVCAR-3,> 100 µM (inactive)
same,GI50,RPMI-8226,54 µM (inactive)
same,GI50,KM12,33.1 µM (inactive)
same,GI50,Malme-3M,16.8 µM (inactive)
same,GI50,K562,23.1 µM (inactive)
same,GI50,MOLT-4,22.1 µM (inactive)
same,GI50,MDA-MB-231,31.3 µM (inactive)
same,GI50,LOX IMVI,28.3 µM (inactive)
same,GI50,EKVX,> 100 µM (inactive)
same,GI50,BT-549,55.8 µM (inactive)
same,GI50,MDA-N,25.5 µM (inactive)
same,GI50,NCI-H522,17.6 µM (inactive)
same,GI50,SNB-75,> 10 µM (inactive)
same,GI50,SF-295,28.6 µM (inactive)
same,GI50,OVCAR-5,46.3 µM (inactive)
same,GI50,HCT-116,35.6 µM (inactive)
same,GI50,ACHN,38.1 µM (inactive)
same,GI50,HT-29,36.2 µM (inactive)
same,GI50,NCI-H460,35.2 µM (inactive)
same,GI50,Hs-578T,48.3 µM (inactive)
same,GI50,SF-268,26.1 µM (inactive)
same,GI50,U-251,17.6 µM (inactive)
same,GI50,MDA-MB-435,20.8 µM (inactive)
same,GI50,SK-MEL-5,15.6 µM (inactive)
same,GI50,SK-MEL-2,21 µM (inactive)
same,GI50,SF-539,19.6 µM (inactive)
same,GI50,NCI-H226,> 100 µM (inactive)
same,GI50,UACC-62,19.9 µM (inactive)
same,GI50,MCF7,45.4 µM (inactive)
same,GI50,OVCAR-8,85.5 µM (inactive)
CN1CCN(c2n[nH]c(=O)c3c2nnn3C2CCCCC2)CC1,GI50,COLO 205,> 100 µM (inactive)
same,GI50,HCC 2998,> 100 µM (inactive)
same,GI50,M14,> 100 µM (inactive)
same,GI50,A549,> 100 µM (inactive)
same,GI50,CCRF-CEM,> 100 µM (inactive)
same,GI50,PC-3,> 100 µM (inactive)
same,GI50,CAKI-1,> 100 µM (inactive)
same,GI50,HOP-92,> 100 µM (inactive)
same,GI50,NCI-H23,> 100 µM (inactive)
same,GI50,DU-145,> 100 µM (inactive)
same,GI50,HCT-15,> 100 µM
same,GI50,SK-MEL-28,> 100 µM (inactive)
same,GI50,RXF 393,> 100 µM (inactive)
same,GI50,TK-10,> 100 µM (inactive)
same,GI50,HL-60,> 100 µM (inactive)
same,GI50,SNB-19,> 100 µM (inactive)
same,GI50,SN12C,> 100 µM (inactive)
same,GI50,UACC-257,> 100 µM (inactive)
same,GI50,786-0,> 100 µM (inactive)
same,GI50,HOP-62,> 100 µM (inactive)
same,GI50,SR,> 100 µM (inactive)
same,GI50,UO-31,> 100 µM (inactive)
same,GI50,OVCAR-4,> 100 µM (inactive)
same,GI50,A498,> 100 µM (inactive)
same,GI50,SW-620,> 100 µM (inactive)
same,GI50,NCI/ADR-RES,> 100 µM (inactive)
same,GI50,T47D,> 100 µM (inactive)
same,GI50,IGROV-1,> 100 µM (inactive)
same,GI50,OVCAR-3,> 100 µM (inactive)
same,GI50,RPMI-8226,> 100 µM (inactive)
same,GI50,KM12,> 100 µM (inactive)
same,GI50,Malme-3M,> 100 µM (inactive)
same,GI50,K562,> 100 µM (inactive)
same,GI50,MOLT-4,> 100 µM (inactive)
same,GI50,MDA-MB-231,> 100 µM (inactive)
same,GI50,LOX IMVI,> 100 µM (inactive)
same,GI50,EKVX,> 100 µM (inactive)
same,GI50,BT-549,> 100 µM (inactive)
same,GI50,MDA-N,> 100 µM (inactive)
same,GI50,NCI-H522,> 100 µM (inactive)
same,GI50,SNB-75,> 100 µM (inactive)
same,GI50,SF-295,> 100 µM (inactive)
same,GI50,OVCAR-5,> 100 µM (inactive)
same,GI50,HCT-116,> 100 µM (inactive)
same,GI50,ACHN,> 100 µM (inactive)
same,GI50,HT-29,> 100 µM (inactive)
same,GI50,NCI-H460,> 100 µM (inactive)
same,GI50,Hs-578T,> 100 µM (inactive)
same,GI50,SF-268,> 100 µM (inactive)
same,GI50,U-251,> 100 µM (inactive)
same,GI50,MDA-MB-435,> 100 µM (inactive)
same,GI50,SK-MEL-5,> 100 µM (inactive)
same,GI50,SK-MEL-2,> 100 µM (inactive)
same,GI50,SF-539,> 100 µM (inactive)
same,GI50,NCI-H226,> 100 µM (inactive)
same,GI50,UACC-62,> 100 µM (inactive)
same,GI50,MCF7,> 100 µM (inactive)
same,GI50,OVCAR-8,> 100 µM (inactive)
